According to patent US11311522B1 (Cavion, Inc., priority 2018, dated 2022):
Where two headings read alike, the source gives them in different places.

Tests used:
GAERS rats = experiment: GAERS rat model of absence epilepsy; settings: 100 mg/kg oral
[1] = 90-day oral toxicology in Beagle dogs; settings: Beagle, dog, in vivo, po
Cav3.3 = target: T1, Cav3.3 (Homo sapiens, UniProt Q9P0X4); experiment: Cav3.3 FLIPR calcium influx assay (HEK 293 cells); type: cell-based; settings: for IC50: Cav3.3 FLIPR assay; for State dependence: hyperpolarized versus depolarized FLIPR potency
T1 construct: expressed in transfected cells; host or cells: HEK 293
T1 sequence (Q9P0X4 whole entry, species assumed): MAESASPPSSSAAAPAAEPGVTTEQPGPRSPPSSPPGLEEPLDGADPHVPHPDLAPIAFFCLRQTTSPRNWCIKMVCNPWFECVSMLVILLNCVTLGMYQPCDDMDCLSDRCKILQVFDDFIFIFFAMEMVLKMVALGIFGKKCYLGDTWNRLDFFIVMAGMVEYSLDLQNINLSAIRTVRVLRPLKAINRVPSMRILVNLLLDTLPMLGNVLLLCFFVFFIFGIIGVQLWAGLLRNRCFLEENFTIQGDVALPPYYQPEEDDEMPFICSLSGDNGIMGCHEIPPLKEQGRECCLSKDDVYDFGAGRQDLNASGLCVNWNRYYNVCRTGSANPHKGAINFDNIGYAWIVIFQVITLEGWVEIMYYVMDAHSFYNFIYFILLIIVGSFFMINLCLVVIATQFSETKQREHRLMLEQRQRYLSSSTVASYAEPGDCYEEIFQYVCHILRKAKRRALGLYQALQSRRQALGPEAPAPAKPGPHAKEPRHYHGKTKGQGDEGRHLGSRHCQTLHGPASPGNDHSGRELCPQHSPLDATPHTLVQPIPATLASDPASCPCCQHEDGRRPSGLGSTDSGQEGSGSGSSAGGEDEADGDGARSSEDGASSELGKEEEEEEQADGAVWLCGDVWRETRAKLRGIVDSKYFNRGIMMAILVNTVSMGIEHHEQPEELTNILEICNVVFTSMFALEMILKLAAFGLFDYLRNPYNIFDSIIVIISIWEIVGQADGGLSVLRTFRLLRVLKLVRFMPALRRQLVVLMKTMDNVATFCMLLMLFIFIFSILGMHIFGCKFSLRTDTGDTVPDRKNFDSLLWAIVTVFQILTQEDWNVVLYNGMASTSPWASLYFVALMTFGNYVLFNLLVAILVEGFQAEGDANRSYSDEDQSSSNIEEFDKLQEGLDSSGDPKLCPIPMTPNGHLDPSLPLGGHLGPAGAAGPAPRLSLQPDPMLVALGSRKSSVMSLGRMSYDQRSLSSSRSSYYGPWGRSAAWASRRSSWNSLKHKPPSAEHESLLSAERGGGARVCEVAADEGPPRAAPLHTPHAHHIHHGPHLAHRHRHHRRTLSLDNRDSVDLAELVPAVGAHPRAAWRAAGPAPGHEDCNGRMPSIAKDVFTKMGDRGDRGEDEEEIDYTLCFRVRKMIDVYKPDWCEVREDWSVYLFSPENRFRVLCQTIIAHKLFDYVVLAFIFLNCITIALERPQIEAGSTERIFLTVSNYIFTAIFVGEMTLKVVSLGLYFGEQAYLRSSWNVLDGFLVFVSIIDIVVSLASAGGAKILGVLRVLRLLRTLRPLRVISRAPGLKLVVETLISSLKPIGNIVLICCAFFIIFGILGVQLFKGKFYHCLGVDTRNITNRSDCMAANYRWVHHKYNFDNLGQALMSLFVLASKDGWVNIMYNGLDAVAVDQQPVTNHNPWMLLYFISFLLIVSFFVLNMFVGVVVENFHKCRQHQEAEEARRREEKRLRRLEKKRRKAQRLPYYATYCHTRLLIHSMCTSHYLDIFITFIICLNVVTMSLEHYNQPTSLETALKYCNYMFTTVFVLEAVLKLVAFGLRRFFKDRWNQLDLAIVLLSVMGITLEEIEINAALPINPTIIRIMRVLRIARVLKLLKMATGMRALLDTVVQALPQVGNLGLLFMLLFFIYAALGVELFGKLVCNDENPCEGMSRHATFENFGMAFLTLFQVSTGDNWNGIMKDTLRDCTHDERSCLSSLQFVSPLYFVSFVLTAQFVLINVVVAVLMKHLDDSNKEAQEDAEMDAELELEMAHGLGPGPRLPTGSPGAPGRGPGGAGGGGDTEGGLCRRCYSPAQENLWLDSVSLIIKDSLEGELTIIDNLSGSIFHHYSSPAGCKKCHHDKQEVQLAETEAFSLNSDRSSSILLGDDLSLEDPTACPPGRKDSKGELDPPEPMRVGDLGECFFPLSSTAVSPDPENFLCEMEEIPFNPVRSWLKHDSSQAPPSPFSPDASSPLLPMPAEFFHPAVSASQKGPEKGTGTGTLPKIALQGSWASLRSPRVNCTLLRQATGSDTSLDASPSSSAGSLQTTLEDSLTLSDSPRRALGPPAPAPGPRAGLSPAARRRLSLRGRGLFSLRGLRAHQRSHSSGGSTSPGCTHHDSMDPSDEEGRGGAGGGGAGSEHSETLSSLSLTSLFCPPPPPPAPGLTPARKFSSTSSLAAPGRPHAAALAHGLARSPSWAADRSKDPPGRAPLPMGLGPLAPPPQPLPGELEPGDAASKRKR

[2] = Brain penetration in male rats; type: in vivo; settings: rat, 25 mg/kg
in vivo = settings: rat, po
WAG/Rij rats = experiment: WAG/Rij rat model of absence epilepsy; type: in vivo; settings: 10 mg/kg oral
From the text: Other T-type antagonists from structurally diverse series have shown similar efficacy in this model (Broicher, 2007; Blumenfeld, 2008; Broicher, 2008; Shipe, 2008; Yang, 2008; Uebele, 2009; Russo, 2010; Russo, 2011).
Data were scored with automated seizure analysis software, averaged, and normalized to enable treatment comparisons (FIG. 76)
Control animals received vehicle administrations. […] Source: Merck TTA Package Description (FIG. 79).

[3] = Single-dose toxicokinetic study in dogs; type: in vivo; settings: dog, plasma, po, 800 mg/kg
[4] = In vitro plasma protein binding, human; type: in vitro ADME; settings: human plasma, read-out: Human-free fraction
[5] = T-CALM: plasma concentrations by 5-in-1 LC/MS/MS; type: in vivo, human; settings: for Plasma concentration, mean: trough; for concentration at 4 h: human, plasma, oral, 4 hours post-dose
Procedure: Additionally, at Visit 4, a post-dose sample will be collected as close to 4 hours post-dose as possible, but within the window of 4-6 hours post-dose (i.e., a total of two PK samples are collected at Visit 4.)
Assay performances were satisfactory and met acceptance criteria for system performance suitability, quantitation range, calibration linearity, assay accuracy and precision, and assay recovery.

Cav3 = settings: from literature, cited from earlier work; for IC50: read-out: Cav3 potency
[6] = rodents; from literature; cited from earlier work
[7] = rodents; from literature; cited from earlier work; remark: listed apart in the source
[8] = rodents; from literature; cited from earlier work; remark: listed apart in the source
harmaline-induced tremor = settings: dose levels up to 10 mg/kg; cited from earlier work
[9] = test system: patients with schizophrenia; experiment: PN004: safety; type: in vivo, human; settings: Study PN004, subjects with schizophrenia, BID Days 1 to 28; CX-8998 N = 86, Olanzapine N = 47
From the text: The primary efficacy endpoint was the mean change from baseline in the Positive and Negative Syndrome Scale (PANSS) total score at Week 4; secondary efficacy endpoints included responder rates on the PANSS total score at Week 4 and the change from baseline in the Clinical Global Impressions—Severity of Illness Scale at Week 4. Safety was monitored by adverse events, laboratory evaluations, ECGs, Holter monitoring, vital signs, the Simpson-Angus Scale, the Barnes Akathisia Rating Scale, the Abnormal Involuntary Movement Scale, and the Columbia Suicide-Severity Rating scale (C-SSRS).

[10] = depolarized, read-out: Depolarized FLIPR potency
[11] = hyperpolarized, read-out: Hyperpolarized FLIPR potency

For `CCC1(C)CC(=O)NC1=O` (stereo not shown) [Ethosuximide, ethosuximide], which “Number and frequency of seizures” value (GAERS rats) is on record?
Its value is “only partially suppressed”.

Which AUC ([1]; female, 10 mg/kg) does the source give for `CC(C(=O)O)c1ccc(CC(=O)N[C@H](C)c2ccc(OCC(F)(F)F)cn2)cc1` (stereo partly shown) [M03] here?
Its AUC is 8.4 µM·h.

And the AUC ([1]; female, 30 mg/kg)?
The AUC was 15.4 µM·h.

And the AUC ([1]; female, 100 mg/kg/day)?
The AUC was 17.2 µM·h.

What about the AUC ([1]; male, 10 mg/kg) of the same compound?
The AUC was 10.5 µM·h.

And the AUC ([1]; male, 30 mg/kg)?
Its AUC is 12.3 µM·h.

And the AUC ([1]; male, 100 mg/kg/day)?
Its AUC is 79.6 µM·h.

And the “Potency and state dependence compared with CX-8998” value (Cav3.3)?
The value was “significantly less potent and state dependent”.

What about the IC50 (Cav3.3; [10]) of the same compound?
Its IC50 is 948 nM.

And the IC50 (Cav3.3; [11])?
Its IC50 is 3320 nM.

What about the State dependence (Cav3.3) of the same compound?
The State dependence was 3.5 fold.

And the Kp at 2 h ([2]; brain and plasma, oral, read-out: Brain-to-plasma ratio)?
Its Kp at 2 h is 0.01.

What about the Kp at 2 h ([2]; brain, po, read-out: Brain: Plasma Ratio) of the same compound?
The Kp at 2 h was 0.01.

And the AUC (in vivo; female, 5 mg/kg)?
Its AUC is 9.85 µM·h.

And the AUC (in vivo; female, 15 mg/kg)?
Its AUC is 19.7 µM·h.

What about the AUC (in vivo; female, 100 mg/kg) of the same compound?
The AUC was 159 µM·h.

And the AUC (in vivo; female, 300 mg/kg)?
Its AUC is 169 µM·h.

What about the AUC (in vivo; male, 5 mg/kg) of the same compound?
Its AUC is 23.9 µM·h.

And the AUC (in vivo; male, 15 mg/kg)?
Its AUC is 34.9 µM·h.

And the AUC (in vivo; male, 100 mg/kg)?
Its AUC is 181 µM·h.

What about the AUC (in vivo; male, 300 mg/kg) of the same compound?
Its AUC is 213 µM·h.

And the Percent of inhibition (WAG/Rij rats)?
Its Percent of inhibition is 71%.

What about the Tmax ([3]; female) of the same compound?
Its Tmax is 8 h.

And the Tmax ([3]; male)?
Its Tmax is 24 h.

And the fraction unbound [4]?
Its fraction unbound is 0.21.

And the “Plasma concentration, mean” value ([5]; Visit 2 (Day 8), 4 mg BID)?
Its value is 11 nM.

And the “Plasma concentration, mean” value ([5]; Visit 3 (Day 15), 8 mg BID)?
Its value is 16 nM.

What about the “Plasma concentration, mean” value ([5]; Visit 4 (Day 28), 10 mg BID) of the same compound?
Its value is 20 nM.

And the concentration at 4 h ([5]; Visit 4 (Day 28), 10 mg BID)?
Its concentration at 4 h is 22 nM.

Which results are given for `CC(CO)c1ccc(CC(=O)N[C@H](C)c2ccc(OCC(F)(F)F)cn2)cc1` (stereo partly shown) [M04]?
AUC ([1]; female, 10 mg/kg): 2.19 µM·h; AUC ([1]; female, 30 mg/kg): 3.75 µM·h; AUC ([1]; female, 100 mg/kg/day): 8.1 µM·h; AUC ([1]; male, 10 mg/kg): 3.37 µM·h; AUC ([1]; male, 30 mg/kg): 2.25 µM·h; AUC ([1]; male, 100 mg/kg/day): 33.9 µM·h; Fold less potent than CX-8998 (Cav3.3): approximately 5 fold; IC50 (Cav3.3; [10]): 19 nM; IC50 (Cav3.3; [11]): 1810 nM; State dependence (Cav3.3): 95 fold; AUC (in vivo; female, 5 mg/kg): 3.19 µM·h; AUC (in vivo; female, 15 mg/kg): 8.04 µM·h; AUC (in vivo; female, 100 mg/kg): 61.9 µM·h; AUC (in vivo; female, 300 mg/kg): 55.3 µM·h; AUC (in vivo; male, 5 mg/kg): 1.32 µM·h; AUC (in vivo; male, 15 mg/kg): 2.47 µM·h; AUC (in vivo; male, 100 mg/kg): 15.5 µM·h; AUC (in vivo; male, 300 mg/kg): 19.4 µM·h; Percent of inhibition (WAG/Rij rats): 60%; fraction unbound [4]: 0.13; Plasma concentration, mean ([5]; Visit 2 (Day 8), 4 mg BID): 4.5 nM; Plasma concentration, mean ([5]; Visit 3 (Day 15), 8 mg BID): 4.9 nM; Plasma concentration, mean ([5]; Visit 4 (Day 28), 10 mg BID): 5.6 nM; concentration at 4 h ([5]; Visit 4 (Day 28), 10 mg BID): 6.4 nM

For `C[C@@H](NC(=O)Cc1ccc(C2CC2)cc1)c1ccc(OCC(F)(F)F)cn1` [TTA-A2], which State dependency (Cav3) is on record?
Its State dependency is no less than 40 fold.

What about the IC50 (Cav3) of the same compound?
Its IC50 is 89 to 98 nM.

What about the Plasma-free fraction [6] of the same compound?
Its Plasma-free fraction is 0.6%.

And the AUClast [7]?
Its AUClast is 30 µM·h.

And the t½ [7]?
The t½ was 1.5 h.

What does the source list for `CC1(C)C[C@@H](CN2CCC(F)(CNC(=O)c3cc(Cl)cc(Cl)c3)CC2)CCO1` [TTA-P2]?
State dependency (Cav3): 1 fold; IC50 (Cav3): 84 to 196 nM; Brain/plasma ratio [8]: 6.0; Harmaline-induced tremor (harmaline-induced tremor): normalized both physiologic tremor prior to harmaline administration and harmaline-induced tremor in a dose-dependent fashion; Plasma-free fraction [6]: 5.7%; AUClast [7]: 1.94 µM·h; Cmax [7]: 480 nM; Tmax [7]: 0.7 h; t½ [7]: 1.8 h

Which results are given for `Cc1cc2c(s1)Nc1ccccc1N=C2N1CCN(C)CC1` [olanzapine, reference compound]?
Anxiety [9]: 0 (0.0); At least 1 adverse event [9]: 23 (48.9); Chronic pharyngitis [9]: 0 (0.0); Dizziness [9]: 1 (2.1); Headache [9]: 3 (6.4); Rhinopharyngitis [9]: 0 (0.0); Schizophrenia [9]: 1 (2.1); Sinus tachycardia [9]: 3 (6.4); Somnolence [9]: 3 (6.4)
